Results: patent US7919498B2, “Substituted pyrazolo[3,4-d]pyrimidines as PI3K inhibitors” (Amgen Inc., priority 2007, dated 2011)

Columns and labels:
human B cells = assay: Human B cells proliferation stimulated by anti-IgM; format: cell-based; settings: B-cell; anti-Human IgM + CD40L-LZ, 72 h, 3H thymidine
Experimental: Human B Cells Proliferation Stimulate by Anti-IgM
Isolate PBMCs from Leukopac or from human fresh blood. Isolate human B cells by using Miltenyi protocol and B cell isolation kit II.—human B cells were Purified by using AutoMacs.column.
Activation of Human B Cells
Use 96 well Flat bottom plate, plate 50000/well purified B cells in B cell proliferation medium (DMEM+5% FCS, 10 mM Hepes, 50 μM 2-mercaptoethanol); 150 μL medium contain 250 ng/mL CD40L-LZ recombinant protein (Amgen) and 2 μg/mL anti-Human IgM antibody (Jackson ImmunoReseach Lab.# 109-006-129), mixed with 50 μL B cell medium containing PI3K inhibitors and incubate 72 h at 37° C. incubator. After 72 h, pulse labeling B cells with 0.5-1 uCi/well ^3H thymidine for overnight ˜18 h, and harvest cell using TOM harvester.

[1] = system: model of systemic lupus erythematosis; settings: in vivo; cited from earlier work
[2] = system: mouse model of rheumatoid arthritis; settings: in vivo; cited from earlier work
murine model of asthma = settings: ovalbumin-induced airway inflammation; cited from earlier work
p110δ = target: T1, p110δ (Homo sapiens, UniProt O00329); settings: cited from earlier work
T1 sequence (O00329 1-1044): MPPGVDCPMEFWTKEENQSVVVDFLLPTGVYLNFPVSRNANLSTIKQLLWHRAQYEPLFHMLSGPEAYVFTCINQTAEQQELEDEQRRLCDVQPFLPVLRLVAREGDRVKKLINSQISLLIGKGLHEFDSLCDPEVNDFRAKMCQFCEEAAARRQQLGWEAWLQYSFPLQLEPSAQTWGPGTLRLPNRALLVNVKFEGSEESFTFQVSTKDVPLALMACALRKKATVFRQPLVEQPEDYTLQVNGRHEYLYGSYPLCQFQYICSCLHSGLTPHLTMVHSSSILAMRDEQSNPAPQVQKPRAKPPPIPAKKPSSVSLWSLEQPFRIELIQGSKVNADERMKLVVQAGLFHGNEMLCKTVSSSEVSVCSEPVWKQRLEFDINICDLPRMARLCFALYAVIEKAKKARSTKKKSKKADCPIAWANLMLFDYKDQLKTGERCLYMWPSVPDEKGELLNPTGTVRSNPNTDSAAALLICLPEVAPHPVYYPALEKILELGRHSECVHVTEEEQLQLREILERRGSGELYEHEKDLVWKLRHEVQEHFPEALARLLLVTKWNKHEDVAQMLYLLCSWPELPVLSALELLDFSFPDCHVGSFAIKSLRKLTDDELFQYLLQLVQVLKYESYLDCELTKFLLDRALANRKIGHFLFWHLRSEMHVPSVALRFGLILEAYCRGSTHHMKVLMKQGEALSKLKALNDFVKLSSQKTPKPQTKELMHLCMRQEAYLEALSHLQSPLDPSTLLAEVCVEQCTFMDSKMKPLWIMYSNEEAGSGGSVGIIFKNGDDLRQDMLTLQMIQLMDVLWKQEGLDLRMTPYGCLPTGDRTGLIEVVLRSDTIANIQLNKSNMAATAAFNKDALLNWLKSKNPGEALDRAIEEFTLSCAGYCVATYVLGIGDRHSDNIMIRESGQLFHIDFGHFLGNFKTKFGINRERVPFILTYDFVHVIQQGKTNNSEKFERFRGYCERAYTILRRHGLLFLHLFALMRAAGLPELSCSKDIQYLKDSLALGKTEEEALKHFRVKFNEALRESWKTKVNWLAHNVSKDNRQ

protein kinases = settings: cited from earlier work

SMILES: Cc1cccc2nc(Cn3nc(C#N)c4c(N)ncnc43)c(-c3ccccc3Cl)nc12 [4-Amino-1-((3-(2-chlorophenyl)-5-methylquinoxalin-2-yl)methyl)-1H-pyrazolo[3,4-d]pyrimidine-3-carbonitrile]
- IC50 (human B cells): 1.99 nM

SMILES: Cn1cc(-c2nn(Cc3cc4c(Cl)cccc4nc3-c3ccccc3Cl)c3ncnc(N)c23)cn1 [Example 26, 1-((5-chloro-2-(2-chlorophenyl)quinolin-3-yl)methyl)-3-(1-methyl-1H-pyrazol-4-yl)-1H-pyrazolo[3,4-d]pyrimidin-4-amine]
- IC50 (human B cells): 46.7 nM

SMILES: O=C1NC(=O)/C(=C\c2ccc3nccnc3c2)S1 [AS 605240]
- onset of disease in model of systemic lupus erythematosis [1]: delay onset of disease
- efficacy in mouse model of rheumatoid arthritis [2]: efficacious

SMILES: Cc1ccccc1-n1c(Cn2cnc3c(N)ncnc32)nc2cccc(C)c2c1=O [IC87114]
- inflammation and disease in murine model of asthma (murine model of asthma): significantly ameliorate inflammation and disease
- inhibition of p110δ (p110δ): high nanomolar range (triple digit)
- activity against any protein kinases tested (protein kinases): no activity

SMILES: Nc1ncnc2c1c(I)nn2Cc1cc2c(Cl)cccc2nc1-c1ccccc1Cl [Example 25, 1-((5-Chloro-2-(2-chlorophenyl)quinolin-3-yl)methyl)-3-iodo-1H-pyrazolo-[3,4-d]pyrimidin-4-amine]
- IC50 (human B cells): 93.4 nM
